Laboratory results from patent US9481669B2, “Pladienolide pyridine compounds and methods of use” (Eisai R&D Management Co., Ltd., priority 2014, dated 2016).

Key:
[1] = patients; administered as intravenous infusion; cited from earlier work
[2] = pH stability measurement (UPLC, 0.1 N HCl); assay type: physicochemical; conditions: buffer, 24 h, 148 µM, pH 1
Method: Compounds were provided in 96-well plates and tested in triplicate. Four microliters of a 10 mM stock solution of compound in DMSO were distributed into each of three wells. The plate was stored at or below −20° C. until the day of the analysis. Methanol (HPLC grade) and 0.1 N HCl (EMD catalog HX0603A-6) were used for dilutions. Acetonitrile (HPLC grade), water (Milli-Q filtered), trifluoroacetic acid (spectral grade) and 0.2M phosphate buffer (Wako, catalog no. 163-14471) were used to prepare the mobile phase for the two analyses.
Stability data was obtained using a Waters Acquity UPLC equipped with a UV detector (Waters TUV) and single quadrupole MS detector (Waters SQD). The 96-well plate containing the compound(s) of interest was(were) removed from the freezer and allowed to warm to room temperature for one hour. The UPLC was primed, equilibrated and the system performance was verified by injecting a standard. After 1 hour, each of the three wells was diluted with 266 μL 0.1 N HCl to give pH=1. The plate was covered and placed on a shaker (Eppindorf Thermomixer R) for 45 minutes at 600 rpm. The plate was removed from the shaker, and the contents of each well were filtered through a filtration plate (Millipore catalog no. MSSLBPC50) by vacuum and injected into the UPLC. After approximately 24 hours, the contents of the wells were re-injected into the UPLC.
Stability in the various buffers was measured by comparing the peak area- % of the analyte in methanol versus the peak area- % of the analyte at the same retention time in 0.1 N HCl buffer in the 24 hr time point injection.

U251 human glioma cells = U251 human glioma cells in vitro; read-out: IC50, glioma cell proliferation; cited from earlier work
[3] = system: reporter gene controlled by human VEGF promoter; conditions: read-out: IC50, VEGF-promoted gene expression; cited from earlier work
[4] = system: WiDr-R cells (colon cancer cells, SF3B1 R1074H mutation); conditions: cited from earlier work

Row | % parent remaining (pH = 1, 24 hours) [2] [%] | Molecule | oral bioavailability [1] | IC50 (U251 human glioma cells) [nM] | IC50 [3] [nM] | resistance of WiDr-R cells in terms of growth inhibition [4]
1 | 44 | CCC(O)C(C)C1OC1CC(C)(O)/C=C/C=C(\C)C1OC(=O)CC(O)CCC(C)(O)C(OC(=O)N2CCN(C3CCCCCC3)CC2)/C=C/C1C (centres unmarked) [Compound E7107, (8E,12E,14E)-7-((4-Cycloheptylpiperazin-1-yl)carbonyl)oxy-3,6,16,21-tetrahydroxy-6,10,12,16,20-pentamethyl-18,19-epoxytricosa-8,12,14-trien-11-olide, reference compound] | insufficient oral bioavailability |  |  | 
2 |  | Pladienolide B |  | 3.5 | 1.8 | resistant to pladienolide B in terms of growth inhibition
